Results reported in ChEMBL document CHEMBL1201862, “PubChem BioAssay data set” (2004).
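Tested at 5 concentrations; 48 h exposure; 96-well plates; endpoints linearly interpolated, else capped at highest concentration. The concentration for 50% growth inhibition is given as GI50.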 Active and inactive are the calls of the source. Cut-off read from the data, not from the text of the source: active = GI50 up to about 1.1 µM and inactive = higher.

Legend:
Experiment in all cases: NCI tumour cell line growth inhibition, 48 h
A549 = tested on: A549
ACHN = tested on: ACHN
U-251 = tested on: U-251
NCI-H460 = tested on: NCI-H460
OVCAR-3 = tested on: OVCAR-3
TK-10 = tested on: TK-10
DU-145 = tested on: DU-145
SK-OV-3 = tested on: SK-OV-3
SNB-19 = tested on: SNB-19
RXF 393 = tested on: RXF 393
HCC 2998 = tested on: HCC 2998
MOLT-4 = tested on: MOLT-4
MDA-N = tested on: MDA-N
MDA-MB-231 = tested on: MDA-MB-231
SR = tested on: SR
T47D = tested on: T47D
SF-539 = tested on: SF-539
M14 = tested on: M14
MCF7 = tested on: MCF7
NCI-H522 = tested on: NCI-H522

Measured: GI50

OCCNC1c2cc(Cl)ccc2-c2c(Cl)cc(Cl)cc21 (stereo not given)
inactive: A549 30 µM | ACHN 25.9 µM | U-251 26.3 µM | NCI-H460 21.7 µM | OVCAR-3 29.8 µM | TK-10 39.7 µM | DU-145 > 100 µM | SK-OV-3 42 µM | SNB-19 39.4 µM | RXF 393 40.2 µM | HCC 2998 35.1 µM | MOLT-4 22.1 µM | MDA-N 26.9 µM | MDA-MB-231 22 µM | SR 20.5 µM | T47D 36.1 µM | SF-539 47.9 µM | M14 38.1 µM | MCF7 17.2 µM | NCI-H522 27.8 µM

O=C1C=C(Br)c2c(Br)sc(Br)c21
inactive: A549 24.5 µM | ACHN 4.62 µM | U-251 13.9 µM | NCI-H460 19.6 µM | OVCAR-3 13.4 µM | TK-10 6.87 µM | DU-145 14.9 µM | SK-OV-3 21.4 µM | SNB-19 17.7 µM | RXF 393 8.18 µM | HCC 2998 13.8 µM | MOLT-4 2.77 µM | MDA-N 13.9 µM | MDA-MB-231 17.2 µM | SR 2.9 µM | T47D 7.13 µM | SF-539 5.13 µM | M14 4.54 µM | MCF7 3.85 µM | NCI-H522 2.07 µM

O=Nc1c(-c2c(O)[nH]c3ccccc23)[nH]c2ccccc12 [INDIRUBIN-3-MONOXIME]
inactive: A549 3.8 µM | ACHN 1.94 µM | U-251 6.97 µM | NCI-H460 3.53 µM | OVCAR-3 3.88 µM | TK-10 5.79 µM | DU-145 2.63 µM | SK-OV-3 1.56 µM | SNB-19 25.8 µM | RXF 393 1.93 µM | HCC 2998 4.27 µM | MOLT-4 4.15 µM | MDA-N 4.58 µM | MDA-MB-231 3.38 µM | SR 4.85 µM | T47D 4.3 µM | SF-539 20 µM | M14 5.61 µM | MCF7 3.13 µM | NCI-H522 3.48 µM
